Values after ≈ are worked out from the molar mass of the structure shown. Where two headings read alike, the source gives them in different places.
Tests used:
MRSA = assay: MIC by broth microdilution, MRSA isolates; assay type: cell-based
E coli wild type = assay: MIC by broth microdilution, wild type E coli; assay type: cell-based
P aeruginosa = assay: MIC by broth microdilution, P aeruginosa isolates; assay type: cell-based, Pseudomonas aeruginosa; settings: for MIC50: Pseudomonas aeruginosa
[1] = system: E coli carrying specific resistance determinants; assay: MIC by broth microdilution, E coli carrying specific resistance determinants; assay type: cell-based; settings: for MIC50 / MIC: Escherichia coli
[2] = system: A1555G mutant mitochondrial ribosome (human chimeric); assay: in-vitro translation assay, human chimeric ribosomes, A1555G mutant mitochondrial decoding site; assay type: biochemical; settings: Table 3 (Example 3)
From the text: (§1) The antiribosomal activity of these compounds was investigated with cell-free translation assays using both wild type bacterial ribosomes and hybrid ribosomes carrying eukaryotic decoding A sites enabling the prediction of selectivity.

[3] = system: cytosolic ribosome (human chimeric); assay type: biochemical
From the text: as §1

[4] = system: mitochondrial ribosome (human chimeric); assay type: biochemical
From the text: as §1

[5] = system: Klebsiella pneumonia AG215; assay: MIC by broth microdilution, Klebsiella pneumonia; assay type: cell-based; settings: strain AG215 Klebsiella pneumonia
[6] = system: Acinetobacter baumannii pittii AG225; assay: MIC by broth microdilution, Acinetobacter baumannii; assay type: cell-based; settings: strain AG225 Acinetobacter baumannii pittii
M. smegmatis SZ380 = assay: MIC by broth microdilution, M. smegmatis; settings: for MIC SZ380 M. smegmatis: strain SZ380 Mycobacterium smegmatis
[7] = system: wild type bacterial ribosomes; assay: in-vitro translation assay, bacterial ribosomes; assay type: biochemical; settings: bacterial ribosome; Table 3 (Example 2); read-out: IC50 Bac
From the text: as §1

[8] = system: Enterobacter cloacae AG290; assay: MIC by broth microdilution, Enterobacter cloacae; assay type: cell-based; settings: strain AG290 Enterobacter cloacae; read-out: MIC AG290 E. cloacae

**Q.** `CC(=O)O.NCC(=O)NC1C(OC2C(N)CC(N)C(O)C2OC2OC(CO)C(OC3OC(CN)C(O)C(O)C3N)C2O)OC(CN)C(O)C1O` (stereo not shown) [Compound 175, 2′-N-(2-Aminoacetyl)-neomycin acetate salt] was tested. Which “MIC MRSA AG038” value (MRSA; clinical isolate AG038, Table 1 (Example 3)) did it give?
**A.** 4 µg/mL

**Q.** What about the “MIC MRSA AG039” value (MRSA; clinical isolate AG039, Table 1 (Example 3)) of the same compound?
**A.** >32 µg/mL

**Q.** And the “MIC MRSA AG042” value (MRSA; clinical isolate AG042, Table 1 (Example 3))?
**A.** >32 µg/mL

**Q.** And the “MIC E coli AG006 Wild type” value (E coli wild type; AG006 Wild type, Table 2 (Example 3))?
**A.** 8 µg/mL

**Q.** And the “MIC E coli AG104 Wild type” value (E coli wild type; AG104 Wild type, Table 2 (Example 3))?
**A.** 16 µg/mL

**Q.** What about the “antibacterial activity, in words” value (E coli wild type; MRSA and E coli, compared with the parent compound) of the same compound?
**A.** very substantial loss of activity

**Q.** What about the “MIC E. coli WT” value (E coli wild type; WT, Table 5 (Example 3)) of the same compound?
**A.** 8 to 16 µg/mL

**Q.** What about the “MIC E coli AG001” value (E coli wild type; clinical isolate AG001, Table 1 (Example 3)) of the same compound?
**A.** 16 µg/mL

**Q.** What about the “MIC E coli AG003” value (E coli wild type; clinical isolate AG003, Table 1 (Example 3)) of the same compound?
**A.** 32 µg/mL

**Q.** And the “MIC E coli AG055” value (E coli wild type; clinical isolate AG055, Table 1 (Example 3))?
**A.** 16 µg/mL

**Q.** What about the “MIC AG212 E. coli” value (E coli wild type; strain AG212 E. coli (ATCC25922)) of the same compound?
**A.** 16 µg/mL

**Q.** And the “MIC AG220 P. aerugin” value (P aeruginosa; strain AG220 Pseudomonas aeruginosa ATCC27853)?
**A.** >32 µg/mL

**Q.** What about the “MIC E. coli AG106 AAC(2′)-Ia” value ([1]; AG106 AAC(2′)-Ia, Table 5 (Example 3)) of the same compound?
**A.** 16 to 32 µg/mL

**Q.** What about the “MIC E coli AG106 AAC(2′)” value ([1]; AG106 AAC(2′), Table 2 (Example 3)) of the same compound?
**A.** 16 to 32 µg/mL

**Q.** What about the “MIC E. coli pGB2armA armA” value ([1]; pGB2armA armA, Table 5 (Example 3)) of the same compound?
**A.** 16 μg/ml

**Q.** And the “Selectivity for Binding to the Bacterial Ribosome over the Mutant Mitochondrial Ribosome” value [2]?
**A.** 153

**Q.** What about the “Selectivity for Binding to the Bacterial Ribosome over the Cytosolic Ribosome” value ([3]; Table 3 (Example 3)) of the same compound?
**A.** 155

**Q.** And the “Selectivity for Binding to the Bacterial Ribosome over the Mitochondrial Ribosome” value ([4]; Table 3 (Example 3))?
**A.** 67

**Q.** What about the “MIC AG215 K. pneumon” value [5] of the same compound?
**A.** 8 µg/mL

**Q.** What about the “MIC AG225 A. baumannii” value [6] of the same compound?
**A.** 8 to 16 µg/mL

**Q.** And the “MIC M. smegmatis SZ380 WT” value (M. smegmatis SZ380; SZ380 WT, Table 5 (Example 3))?
**A.** 0.25 µg/mL

**Q.** What about the “MIC SZ380 M. smegmatis” value (M. smegmatis SZ380) of the same compound?
**A.** 0.25 µg/mL

**Q.** With `CC1CC(N)C2O[C@H](O[C@@H]3C(N)C[C@@H](N)C(O)[C@H]3O[C@@H]3O[C@H](CO)[C@H](O[C@H]4O[C@@H](CN)[C@@H](O)C(O)C4N)C3O)C(N)[C@@H](O)[C@@H]2O1` (stereo partly drawn) [Compound 139, 4-O-(2′,6′-Diamino-4′,8′-anhydro-2′,6′,7′,9′-tetradeoxy-D-threo-α-D-gluco-nonapyranosyl)-5-O-(β-paramobiosyl)-2-deoxystreptamine.6AcOH] as the compound, how does the “MIC50 MRSA AG38” value (MRSA; strain AG38, Table 1 (Example 2)) read?
**A.** 4 µg/mL (≈ 6.11 µM)

**Q.** And the “MIC50 MRSA AG39” value (MRSA; strain AG39, Table 1 (Example 2))?
**A.** 4 µg/mL (≈ 6.11 µM)

**Q.** What about the “MIC50 MRSA AG42” value (MRSA; strain AG42, Table 1 (Example 2)) of the same compound?
**A.** 2 µg/mL (≈ 3.05 µM)

**Q.** And the “MIC50 MRSA AG44” value (MRSA; strain AG44, Table 1 (Example 2))?
**A.** 2 µg/mL (≈ 3.05 µM)

**Q.** And the “MIC50 E coli BM13 (AG06) wt” value (E coli wild type; BM13 (AG06) wt, Table 2A (Example 2))?
**A.** 1 to 2 µg/mL

**Q.** And the MIC (E coli wild type; Escherichia coli, ATCC25922, strain AG212 E. coli (ATCC25922), read-out: MIC AG212 E. coli)?
**A.** 1 µg/mL (≈ 1.53 µM)

**Q.** What about the “MIC WT” value (E coli wild type; WT, Table 3 (Example 2)) of the same compound?
**A.** 0.5 to 1 µg/mL

**Q.** What about the “MIC50 E coli pH430 WT” value (E coli wild type; pH430 WT, Table 2B (Example 2)) of the same compound?
**A.** 0.5-1 μg/ml

**Q.** And the “MIC50 E coli AG01” value (E coli wild type; strain AG01, Table 1 (Example 2))?
**A.** 2 µg/mL (≈ 3.05 µM)

**Q.** What about the “MIC50 E coli AG03” value (E coli wild type; strain AG03, Table 1 (Example 2)) of the same compound?
**A.** 2 µg/mL (≈ 3.05 µM)

**Q.** And the “MIC50 E coli AG55” value (E coli wild type; strain AG55, Table 1 (Example 2))?
**A.** 2 µg/mL (≈ 3.05 µM)

**Q.** What about the MIC50 (P aeruginosa; strain AG33, Table 1 (Example 2), read-out: MIC50 P aeruginosa AG33) of the same compound?
**A.** 128 µg/mL (≈ 196 µM)

**Q.** What about the MIC50 (P aeruginosa; strain AG86, Table 1 (Example 2), read-out: MIC50 P aeruginosa AG86) of the same compound?
**A.** 128 µg/mL (≈ 196 µM)

**Q.** And the “MIC50 P aeruginosa AG31” value (P aeruginosa; strain AG31, Table 1 (Example 2))?
**A.** 32 µg/mL (≈ 48.9 µM)

**Q.** And the “MIC50 P aeruginosa AG32” value (P aeruginosa; strain AG32, Table 1 (Example 2))?
**A.** 32 µg/mL (≈ 48.9 µM)

**Q.** And the MIC (P aeruginosa; strain AG220 Pseudomonas aeruginosa ATCC27853, read-out: MIC AG220 P. aerugin)?
**A.** 16 to 32 µg/mL (≈ 24.4 to 48.9 µM)

**Q.** And the MIC50 ([1]; read-out: MIC50 E coli AG07 AAC(3), AG07 AAC(3), Table 2A (Example 2))?
**A.** 4 µg/mL (≈ 6.11 µM)

**Q.** And the MIC50 ([1]; read-out: MIC50 E coli AG09 AAC(6′), AG09 AAC(6′), Table 2A (Example 2))?
**A.** 2 µg/mL (≈ 3.05 µM)

**Q.** And the MIC50 ([1]; read-out: MIC50 E coli AG036 ANT(4′,4″), AG036 ANT(4′,4″), Table 2A (Example 2))?
**A.** 2 µg/mL (≈ 3.05 µM)

**Q.** And the MIC50 ([1]; read-out: MIC50 E coli AG036 ANT(4′,4″), AG036 ANT(4′,4″), Table 2B (Example 2))?
**A.** 0.25 µg/mL (≈ 0.382 µM)

**Q.** What about the MIC50 ([1]; read-out: MIC50 E coli AG037 APH(3′)-III, AG037 APH(3′)-III, Table 2B (Example 2)) of the same compound?
**A.** 8 to 16 µg/mL (≈ 12.2 to 24.4 µM)

**Q.** And the MIC50 ([1]; read-out: MIC50 E coli AG037 APH(3′,5″), AG037 APH(3′,5″), Table 2A (Example 2))?
**A.** 32 to 64 µg/mL (≈ 48.9 to 97.8 µM)

**Q.** And the MIC50 ([1]; read-out: MIC50 E coli AG103 ArmA, AG103 ArmA, Table 2A (Example 2))?
**A.** 2 µg/mL (≈ 3.05 µM)

**Q.** What about the MIC50 ([1]; read-out: MIC50 E coli AG103 armA, AG103 armA, Table 2B (Example 2)) of the same compound?
**A.** 0.5 µg/mL (≈ 0.764 µM)

**Q.** What about the MIC50 ([1]; read-out: MIC50 E coli AG105 AAC(2′), AG105 AAC(2′), Table 2A (Example 2)) of the same compound?
**A.** 2 to 4 µg/mL (≈ 3.05 to 6.11 µM)

**Q.** What about the MIC50 ([1]; read-out: MIC50 E coli pH414 AAC(6′)-I, pH414 AAC(6′)-I, Table 2B (Example 2)) of the same compound?
**A.** 1 µg/mL (≈ 1.53 µM)

**Q.** What about the MIC50 ([1]; read-out: MIC50 E coli pH415 AAC(6′)-II, pH415 AAC(6′)-II, Table 2B (Example 2)) of the same compound?
**A.** 1 µg/mL (≈ 1.53 µM)

**Q.** And the MIC50 ([1]; read-out: MIC50 E coli pH421 APH(3′)-I, pH421 APH(3′)-I, Table 2B (Example 2))?
**A.** > 32 µg/mL

**Q.** What about the MIC50 ([1]; read-out: MIC50 E coli pH422 APH(3′)-II, pH422 APH(3′)-II, Table 2B (Example 2)) of the same compound?
**A.** 8 µg/mL (≈ 12.2 µM)

**Q.** What about the MIC50 ([1]; read-out: MIC50 E coli pH423 APH(3)-VI, pH423 APH(3)-VI, Table 2B (Example 2)) of the same compound?
**A.** 1 to 2 µg/mL (≈ 1.53 to 3.05 µM)

**Q.** And the MIC50 ([1]; read-out: MIC50 E coli pH432 ANT(4′), pH432 ANT(4′), Table 2B (Example 2))?
**A.** 1 µg/mL (≈ 1.53 µM)

**Q.** What about the MIC ([1]; read-out: MIC AAC(6′)) of the same compound?
**A.** 1 µg/mL (≈ 1.53 µM)

**Q.** What about the MIC ([1]; read-out: MIC ANT(4′)) of the same compound?
**A.** 0.25 µg/mL (≈ 0.382 µM)

**Q.** What about the MIC ([1]; read-out: MIC APH(3′)-II) of the same compound?
**A.** 8 µg/mL (≈ 12.2 µM)

**Q.** And the MIC ([1]; read-out: MIC APH(3′)-VI)?
**A.** 1 to 2 µg/mL (≈ 1.53 to 3.05 µM)

**Q.** What about the IC50 [7] of the same compound?
**A.** 120 nM

**Q.** What about the IC50 ([3]; cytosolic, Table 3 (Example 2), read-out: IC50 Cyt) of the same compound?
**A.** 19000 nM

**Q.** And the IC50 ([4]; mitochondrial, Table 3 (Example 2), read-out: IC50 Mit)?
**A.** 2300 nM

**Q.** And the MIC ([5]; Klebsiella pneumoniae, read-out: MIC AG215 K. pneumon)?
**A.** 0.5 to 1 µg/mL (≈ 0.764 to 1.53 µM)

**Q.** And the MIC [6]?
**A.** 4 µg/mL (≈ 6.11 µM)

**Q.** What about the MIC [8] of the same compound?
**A.** 1 µg/mL (≈ 1.53 µM)

**Q.** And the “MIC SZ380 M. smegmatis” value (M. smegmatis SZ380)?
**A.** 1 to 2 µg/mL

Source: patent publication US11466044B2 (WAYNE STATE UNIVERSITY, priority 2017, dated 2022)
